Experimental findings from ChEMBL document CHEMBL1139131, “Lead optimization of 5,6-diarylpyridines as CB1 receptor inverse agonists” (Bioorg Med Chem Lett, 2007) are described below.

The target in one data set is Cannabinoid receptor 2 (Homo sapiens, UniProt P34972).
Data set [1] is described as follows: in vivo. Particulars: Sprague-Dawley, rat.
Description: Bioavailability in Sprague-Dawley rat
Data set [2] is described as follows: in vivo. Conditions: Sprague-Dawley, rat. This is another data set of the same source.
Description: Plasma clearance in Sprague-Dawley rat
A short description of data set [3]: in vivo. Conditions: Sprague-Dawley, rat. The source holds these as a separate data set.
Description: Half life in Sprague-Dawley rat
Data set [4] can be described thus: in vivo. Particulars: Sprague-Dawley, rat. The source holds these as a separate data set.
Description: Volume of distribution in Sprague-Dawley rat
Data set [5] in a line: in vivo. Particulars: Sprague-Dawley, rat, brain, iv.
Description: Ratio of drug level in brain to plasma in iv dosed Sprague-Dawley rat after 0.25 hr
Data set [6] can be described thus: in vivo. Particulars: Sprague-Dawley, rat, brain, iv. This is another data set of the same source.
Description: Ratio of drug level in brain to plasma in iv dosed Sprague-Dawley rat after 4 hrs

Cannabinoid receptor 2, sequence (P34972 whole entry): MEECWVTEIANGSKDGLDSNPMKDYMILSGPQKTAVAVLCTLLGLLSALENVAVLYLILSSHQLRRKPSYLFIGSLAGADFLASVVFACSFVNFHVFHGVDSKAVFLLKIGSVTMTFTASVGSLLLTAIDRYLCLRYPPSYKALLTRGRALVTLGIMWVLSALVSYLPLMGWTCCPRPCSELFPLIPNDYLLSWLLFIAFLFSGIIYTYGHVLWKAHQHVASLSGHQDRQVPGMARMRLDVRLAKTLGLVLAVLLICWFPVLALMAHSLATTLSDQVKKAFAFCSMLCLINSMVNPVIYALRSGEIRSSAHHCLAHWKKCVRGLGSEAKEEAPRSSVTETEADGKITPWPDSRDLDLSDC
Description for Cannabinoid receptor 2: Binding affinity at CB2 receptor

The compound `N#Cc1cc(-c2ccc(Cl)cc2)c(-c2ccccc2Cl)nc1Oc1ccc(F)c(F)c1` showed an IC50 on Cannabinoid receptor 2 of 5700 nM.
Compound `CCC(N)(C#Cc1nc(-c2ccccc2Cl)c(-c2ccc(Cl)cc2)cc1C#N)CC` showed an IC50 against Cannabinoid receptor 2 of 1100 nM.
On the same count and under the same terms, to `N#Cc1cc(-c2ccc(Cl)cc2)c(-c2ccc(Cl)cc2Cl)nc1Oc1cc(F)cc(F)c1` belongs 320 nM; to `CC(C)Oc1nc(-c2ccc(Cl)cc2Cl)c(-c2ccc(Cl)cc2)cc1C#N`, 860 nM.
Same read-out and setting: to `N#Cc1cc(-c2ccc(Cl)cc2)c(-c2ccc(Cl)cc2Cl)nc1NC(=O)c1ccc(F)c(F)c1` belongs 315 nM; to `N#Cc1cc(-c2ccc(Cl)cc2)c(-c2ccc(Cl)cc2Cl)nc1Nc1ccc(F)cc1`, 2800 nM.
Same read-out and setting: the value for `NC(=O)c1cc(-c2ccc(Cl)cc2)c(-c2ccc(Cl)cc2Cl)nc1Oc1ccc(F)c(F)c1` was 4900 nM.
`N#Cc1cc(-c2ccc(Cl)cc2)c(-c2ccccc2Cl)nc1-c1cncnc1` registered an IC50 on Cannabinoid receptor 2 of 4300 nM.
The same measure, in the same setting: the value for `CC(C)NC(=O)c1cc(-c2ccc(Cl)cc2)c(-c2ccc(Cl)cc2Cl)nc1Oc1ccc(F)c(F)c1` was 1600 nM.
The same measure, in the same setting: the value for `Cn1cc(-c2nc(-c3ccccc3Cl)c(-c3ccc(Cl)cc3)cc2C#N)cn1` was 3300 nM; that for `N#Cc1cc(-c2ccc(Cl)cc2)c(-c2ccc(Cl)cc2Cl)nc1-n1ccnc1` was 310 nM.
Still for that read-out and setting: to `CC(C)(C)N1CCN(c2nc(-c3ccccc3Cl)c(-c3ccc(Cl)cc3)cc2C#N)CC1` belongs 2600 nM.
At Cannabinoid receptor 2, `N#Cc1cc(-c2ccc(Cl)cc2)c(-c2ccc(Cl)cc2Cl)nc1Sc1ccc(F)cc1` registered a 50% inhibitory concentration (IC50) of 5200 nM. This IC50 is about 2-fold higher than that of the compound before.
Same read-out and setting: the value for `N#Cc1cc(-c2ccc(Cl)cc2)c(-c2ccc(Cl)cc2Cl)nc1OCC1CCOC1` (configuration not stated) was 430 nM.
As for `CN(C)NC(=O)c1cc(-c2ccc(Cl)cc2)c(-c2ccc(Cl)cc2Cl)nc1Oc1ccc(F)c(F)c1`, at Cannabinoid receptor 2, the 50% inhibitory concentration (IC50) came to 1800 nM. This compound also yielded a bioavailability in the data set “in vivo [1]” of 26%. The clearance in the data set “in vivo [2]” is 24 mL/min/kg. Besides, in the data set “in vivo [3]”, the half-life was 4.1 h. The compound also registered a Vd in “in vivo [4]” of 6.7 L/kg. In “in vivo [5]”, this compound showed a Kp at […] of 1.2. The Kp at 4 h in the data set “in vivo [6]” was 3.
With `CNN(C)C(=O)c1cc(-c2ccc(Cl)cc2)c(-c2ccc(Cl)cc2Cl)nc1Oc1ccc(F)c(F)c1`, the IC50 on Cannabinoid receptor 2 was 650 nM.
Same read-out and setting: the value for `N#Cc1cc(-c2ccc(Cl)cc2)c(-c2ccc(Cl)cc2Cl)nc1-n1nnc2ccccc21` was 465 nM.
The same measure, in the same setting: the value for `N#Cc1cc(-c2ccc(Cl)cc2)c(-c2ccc(Cl)cc2Cl)nc1Oc1ccc(Cl)cc1` was 4200 nM.
Still for that read-out and setting: the value for `N#Cc1cc(-c2ccc(Cl)cc2)c(-c2ccc(Cl)cc2Cl)nc1N1CCCCC1` was 4000 nM; that for `CC(C)N1CCN(c2nc(-c3ccccc3Cl)c(-c3ccc(Cl)cc3)cc2C#N)C(=O)C1=O` was 715 nM; that for `N#Cc1cc(-c2ccc(Cl)cc2)c(-c2ccc(Cl)cc2Cl)nc1Oc1cc(Cl)cc(Cl)c1` was 5600 nM.
As to `CC(C)(C)C(=O)N1CCN(c2nc(-c3ccccc3Cl)c(-c3ccc(Cl)cc3)cc2C#N)CC1`, half-maximal inhibition against Cannabinoid receptor 2 (IC50) required 1100 nM.
On to `N#Cc1cc(-c2ccc(Cl)cc2)c(-c2ccccc2Cl)nc1-c1cccnc1`, for which the 50% inhibitory concentration (IC50) against Cannabinoid receptor 2 came to 3700 nM.
Same read-out and setting: to `N#Cc1cc(-c2ccc(Cl)cc2)c(-c2ccc(Cl)cc2Cl)nc1Oc1cccc(F)c1` belongs 2300 nM.
On the same count and under the same terms, to `N#Cc1cc(-c2ccc(Cl)cc2)c(-c2ccc(Cl)cc2Cl)nc1OCCNC(=O)C1CCC1` belongs 450 nM; to `COc1ccc(Oc2nc(-c3ccc(Cl)cc3Cl)c(-c3ccc(Cl)cc3)cc2C#N)cc1`, 3800 nM.
`CC(C)(C)C(=O)Nc1nc(-c2ccc(Cl)cc2Cl)c(-c2ccc(Cl)cc2)cc1C#N`: the half-maximal inhibitory concentration (IC50) against Cannabinoid receptor 2 stood at 1700 nM.
Still for that read-out and setting: to `CC(C)(O)C#Cc1nc(-c2ccccc2Cl)c(-c2ccc(Cl)cc2)cc1C#N` belongs 1800 nM.
Still for that read-out and setting: the value for `N#Cc1cc(-c2ccc(Cl)cc2)c(-c2ccc(Cl)cc2Cl)nc1Oc1cccc(Cl)c1` was 4100 nM.
Still for that read-out and setting: the value for `N#Cc1cc(-c2ccc(Cl)cc2)c(-c2ccc(Cl)cc2Cl)nc1Oc1ccc(F)cc1` was 4400 nM; that for `N#Cc1cc(-c2ccc(Cl)cc2)c(-c2ccccc2Cl)nc1N1CCN(S(=O)(=O)c2cc(F)cc(F)c2)CC1` was 1400 nM.
At Cannabinoid receptor 2, `N#Cc1cc(-c2ccc(Cl)cc2)c(-c2ccc(Cl)cc2Cl)nc1Oc1ccc(F)c(F)c1` yielded a half-inhibitory concentration (IC50) of 4100 nM. Moreover, the bioavailability in the data set “in vivo [1]” was determined as 66%. The compound further had a clearance in “in vivo [2]” of 3.5 mL/min/kg. Further, the half-life in the data set “in vivo [3]” is 5.6 h. In “in vivo [4]”, the volume of distribution (Vd) is 1.5 L/kg. Further, the Kp at […] in “in vivo [5]” was 0.1. In “in vivo [6]”, the Kp at 4 h was 0.61.
The compound `CC(C)CNc1nc(-c2ccc(Cl)cc2Cl)c(-c2ccc(Cl)cc2)cc1C#N` registered a 50% inhibitory concentration (IC50) at Cannabinoid receptor 2 of 1800 nM.
With `N#Cc1cc(-c2ccc(Cl)cc2)c(-c2ccc(Cl)cc2Cl)nc1OC1CCOC1` (configuration not stated), the half-maximal inhibitory concentration (IC50) on Cannabinoid receptor 2 worked out at 730 nM.
On the same count and under the same terms, the value for `CC(C)(C)C#Cc1nc(-c2ccccc2Cl)c(-c2ccc(Cl)cc2)cc1C#N` was 2100 nM.

As usually defined, the IC50 is the midpoint of a concentration-inhibition curve. Lower therefore signals greater potency. Usually bioavailability stands for the share of a dose that reaches the circulation, judged against a reference dose that is usually intravenous. A lower bioavailability goes with little systemic uptake. Broadly, the clearance is the rate of elimination divided by the concentration. Low values mean inefficient removal, high ones efficient removal. A word on the half-life: it is the time needed for the level to fall by half in the phase considered. Read a low half-life as fast loss. Usually Vd stands for the apparent volume that relates the amount in the body to the concentration in plasma or blood. A low value points to little distribution into tissue.
